The series in a line: Human HepG2 cell viability assay in 384 well format. More on the design: dose 125 nL, time 70.5 hour; concentration not given beside the values. The note with it: HepG2 cells, read-out: Inhibition. The format is toxicity, cell-based.

Regarding `Cc1cc(CN2CCC(CNS(=O)(=O)c3ccccc3F)CC2)c(C)o1`, the cytotoxicity at 70.5 h was determined as 37.7%.
Then `CCOc1ccc(S(=O)(=O)NCCc2ccc(N(C)C)cc2)cc1C`, with -3.6%; and `CCOc1ccc(S(=O)(=O)NCCCc2ccc(N(C)C)cc2)cc1C`, with -1.63%; and `O=C(CCc1ccccc1)NCC1CCN(Cc2ccccc2)CC1`, with 0.0668%.
Then `O=C(Cc1ccccc1Cl)NCC1CCN(Cc2ccsc2)CC1`, with -5.31%; and `O=C(NCc1ccccc1)NCC1CCN(Cc2ccsc2)CC1`, with -7.87%; and `O=C(NCC1CCN(c2ncccn2)CC1)c1cnccn1`, with -12.6%.
With `CS(=O)(=O)N1CCC(CNC(=O)C2CCC2)CC1`, the cytotoxicity at 70.5 h was 40.8%.
The same measure for `CS(=O)(=O)N1CCC(CNC(=O)C2CCCC2)CC1`: -16%; for `COC(=O)N1CCC(CNC(=O)C2CCN(S(C)(=O)=O)CC2)CC1`: -19.3%; for `COc1ncccc1C(=O)NCCn1nc(C)ccc1=O`: -8.68%.
The same measure for `O=C(CC1CCCC1)NCCS(=O)(=O)N1CCN(c2ccccn2)CC1`: -13%.
As for `O=C(NCCS(=O)(=O)N1CCN(c2ncccn2)CC1)C1CC1`, the cytotoxicity at 70.5 h came out at 16.5%.
The same measure for `CCc1ccc(S(=O)(=O)NCCOc2ccc3nnc(C)n3n2)s1`: -11.7%.
Then `CC(=O)c1cccc(NC(=O)Cn2cnc(-c3ccccc3)cc2=O)c1`, with -3%.
The same measure for `CS(=O)(=O)N1CCN(c2ccc(Nc3ccccn3)nn2)CC1`: -6.91%.
For `CC(=O)Nc1ccc(SCCCC(=O)NCC2CCCO2)nn1` (configuration not stated), the cytotoxicity at 70.5 h was -11.3%.
Then `O=C(CCCSc1ccc(NC(=O)C2CC2)nn1)NCC1CCCO1` (configuration not stated), with -14.1%; and `COc1cc(OC)cc(C(=O)NCC(c2cccn2C)N2CCCC2)c1` (configuration not stated), with 30.6%; and `COc1cccc(C(=O)NCC(c2cccn2C)N2CCCC2)c1OC` (configuration not stated), with 3.39%.
For `COc1ccc(S(=O)(=O)NCC(c2cccn2C)N(C)C)cc1F` (configuration not stated), the cytotoxicity at 70.5 h was -8.8%.
Consider `Cc1nc(NC(=O)c2c3c(nn2C2CCS(=O)(=O)C2)CCC3)sc1C` (configuration not stated), for which the cytotoxicity at 70.5 h is 16.2%.
For `Cc1nnc(C2CCN(C(=O)c3cnc4ccccc4n3)CC2)s1`, the cytotoxicity at 70.5 h was -2.76%.
For `O=S(=O)(NCCNc1cc(-n2cccn2)ncn1)c1cccs1`, the cytotoxicity at 70.5 h was determined as 12.1%.
Then `CC(C)(C)c1csc(CN2CCN(S(=O)(=O)c3cccnc3)CC2)n1`, with -14.8%; and `O=S(=O)(c1cccnc1)N1CCN(Cc2nc(-c3ccco3)cs2)CC1`, with 0.0264%.
The same measure for `O=C(c1ccsc1)N1CCC(c2nnc(C3CC3)o2)CC1`: 28.3%; for `Cn1c(-c2ccccc2)nn(CCNS(=O)(=O)c2ccccc2Cl)c1=O`: 0.396%.
As for `Cn1c(-c2cccs2)nn(CCNS(=O)(=O)c2ccccc2Cl)c1=O`, the cytotoxicity at 70.5 h was -1.9%.
Take `COCCNC(=O)NCCS(=O)(=O)N1CCN(c2cccc(C)c2)CC1`: the cytotoxicity at 70.5 h is -12.5%.
The same measure for `O=S(=O)(c1c(F)cccc1F)N1CCC(Cn2cccn2)CC1`: -11.8%; for `O=S(=O)(NCC1(c2cccs2)CCCC1)c1cccnc1`: -4.26%; for `O=S(=O)(NCC1(c2cccs2)CCOCC1)c1cccnc1`: -6.99%.
The same measure for `O=C(CSC1CCCC1)N1CCN(C(=O)C2CC2c2ccccc2)CC1` (configuration not stated): -3.24%.
The same measure for `Cn1nnnc1SCC(=O)N1CCN(C(=O)C2CC2c2cccs2)CC1` (configuration not stated): 1.49%; for `O=C(NCc1ccc(F)cc1)NCC(O)(c1ccco1)C1CC1` (configuration not stated): 6.32%; for `COC(=O)c1ccc(C(=O)NCC(O)c2cccn2C)cc1` (configuration not stated): 48.7%.
Turning to `Cn1cccc1C(O)CNC(=O)COc1ccc(Cl)cc1Cl` (configuration not stated), the cytotoxicity at 70.5 h was -12%.
Then `O=C(NCC(O)c1ccsc1)Nc1cccs1` (configuration not stated), with 25.4%; and `Cc1ccsc1C(O)CNC(=O)Cc1ccc(F)cc1` (configuration not stated), with 25%; and `Cc1cc(S(=O)(=O)NCC(O)c2sccc2C)ccc1F` (configuration not stated), with -1.45%.
The same measure for `COc1ccccc1OCC(=O)NCC(O)(c1cccs1)C1CC1` (configuration not stated): -5.23%.
The same measure for `COc1ccc(CC(C)(O)CNC(=O)c2cccs2)cc1` (configuration not stated): -15.5%; for `COc1ccc(CC(C)(O)CNC(=O)NCc2cccs2)cc1` (configuration not stated): -13.9%; for `O=C(CN1C(=O)CCC1=O)NCC1(O)CCc2ccccc21` (configuration not stated): 1.38%.
As for `O=C(Cn1c(=O)oc2ccccc21)NCC1(O)CCc2ccccc21` (configuration not stated), the cytotoxicity at 70.5 h is -6.07%.
The same measure for `CC(O)(CNC(=O)c1c(F)cccc1Cl)C1CC1` (configuration not stated): -14.4%.
The same measure for `COc1ccccc1OCC(=O)NCC(C)(O)C1CC1` (configuration not stated): -15.3%; for `O=S(=O)(NCC(O)c1cccs1)c1ccccc1Cl` (configuration not stated): 11%.
The same measure for `COC1CCN(C(=O)CCn2ccc(=O)[nH]c2=O)CC1`: 8.52%; for `Cc1cc(C)n(CC(=O)NCc2ccccn2)n1`: -10.7%; for `COc1ccc(F)cc1S(=O)(=O)N1CCC(OC)CC1`: -2.88%.
Turning to `CC(=O)c1cccc(NC(=O)Cn2cnc(-c3cccs3)cc2=O)c1`, the cytotoxicity at 70.5 h was -1.2%.
The same measure for `O=C(NCC1(CO)CC1)c1ccccc1Cl`: -14.1%; for `O=C(NCC1(CO)CC1)c1ccccc1C(F)(F)F`: -9.3%.
The same measure for `COc1nn(C)cc1C(=O)NCC(=O)Nc1cccnc1`: -10.6%; for `O=S(=O)(Cc1ccc(F)cc1)N1CCN(CC(O)C2CC2)CC1` (configuration not stated): -1.75%.
Then `COc1ncccc1C(=O)N1CC(c2nc(-c3ccccn3)no2)C1`, with 19.5%.
As to `Fc1cccc(CNCC2Cn3nncc3CO2)c1` (configuration not stated), the cytotoxicity at 70.5 h is -7.02%.
The same measure for `CCC(NC(=O)COC)c1ccccc1OCC(=O)N1CCCC1` (configuration not stated): -4.2%; for `COc1ncccc1CNC(=O)c1ccc(C)[nH]c1=O`: 12.6%.
Then `CN(C)c1ccc(CNC(=O)Nc2ccc(S(C)(=O)=O)nc2)cc1`, with -7.69%.
The same measure for `Cc1cccc(NC(=O)C2CSCN2C(=O)c2cnccn2)c1C` (configuration not stated): -7.92%.
Take `Cc1cnn(C2CCCN(C(=O)c3ccc(-n4cnnn4)cc3)C2)c1` (configuration not stated): the cytotoxicity at 70.5 h turned out to be 0.981%.
`Cc1ccc(NC(=O)C2CSCN2C(=O)c2cccnc2)c(C)c1` (configuration not stated): the cytotoxicity at 70.5 h was determined as 6.06%.
Then `c1ccc(-n2ccc(CNC3CCc4ncnn4C3)n2)cc1` (configuration not stated), with -5.75%.
Take `c1ccc(Cc2nnc(CN3CCCC(Cn4cncn4)C3)o2)cc1` (configuration not stated): the cytotoxicity at 70.5 h is -13.3%.
On to `Cc1ccc(-c2noc(CN3CCn4c(nnc4C4CC4)C3)n2)cc1`, for which the cytotoxicity at 70.5 h was -16%.
The same measure for `c1cncc(-c2noc(CN3CCn4c(nnc4C4CC4)C3)n2)c1`: -1.9%; for `Cc1noc(C)c1S(=O)(=O)NC(=O)COc1cccc(C(C)C)c1`: -2.21%; for `Cc1noc(C)c1S(=O)(=O)NC(=O)COc1ccc(C(C)C)cc1`: -9.11%.
The same measure for `COCCN1CCC12CCN(C(=O)Cc1cccs1)C2` (configuration not stated): -7.8%.

The record behind these values is ChEMBL document CHEMBL3507680, “University of Dundee, Gates Library screen for HepG2 cell viability”.
